Laboratory results taken from patent EP0419844B1, “N-hydroxy-dibenz[b,e]oxepin-alkylamines and -alkanoic acid amides, related heterocyclic analogues, a process for their preparation and their use in the manufacture of medicaments” (HOECHST-ROUSSEL PHARMACEUTICALS INCORPORATED, priority 1989, dated 1991).

Assays:
[1] = test system: TPA-induced ear edema; assay: TPA-Induced Ear Edema (TPAEE); assay type: in vivo, female Swiss Webster mice; settings: for TPAEE 10 »g/ear: 10 »g/ear compound topical with 10 »g TPA, ear plug weight after about 5 hours, mean percent change versus control
Protocol: TPA-Induced Ear Edema (TPAEE)
In the TPA-induced ear edema assay, TPA (12-0-tetradecanoyl-phorbol-13-acetate) is dissolved in 30/70 propylene glycol/ethanol and is applied to the right ear of groups of 6 female Swiss Webster mice at a volume of 20 »l so that a total of 10 »g of TPA is delivered to the inner and outer surfaces of the ear. The mice were housed together in a cage under standard conditions for 1 week prior to use with food and water ad lib. The test compound is dissolved in the vehicle and is applied to the right ear (the inner and outer surfaces) at a volume of 20 »l so that a total of 10 »g of the compound is delivered to the ear. After about 5 hours, the animals are sacrificed and a 4 mm diameter plug is taken from each ear and weighed. The difference between the right and left ear plug weights for each animal was determined. The antiinflammatory activity of the test compound is expressed as the mean percent change in ear plug weight of the treated animals compared to the mean percent change in the plug weight of the control animals. (Standard: Indomethacin: -86% at 1 mg/ear). Young, J.M. et al., J. Invest. Dermatol., 80 (1983), pp. 48-52.

[2] = test system: arachidonic acid-induced ear edema; assay: Arachidonic Acid-Induced Mouse Ear Edema (AAEE); assay type: in vivo, female Swiss Webster mice; settings: 1 mg/ear topical, 30 minutes before arachidonic acid 4 mg/ear; ear plug weight one hour later, relative to control
Protocol: Arachidonic Acid-Induced Mouse Ear Edema (AAEE)
In the arachidonic acid-induced ear edema assay, the test compound is dissolved in 30/70 propylene glycol/ethanol and is applied to both ears of groups of 6 female Swiss Webster mice at a volume of 20 »l so that a total of 1.0 mg of test compound as delivered to each ear over the inner and outer surfaces. The mice were housed together in a cage under standard conditions for 1 week prior to use with food and water ad lib. The same volume (20 »l) of vehicle is applied to each ear of a control group of mice. After 30 minutes, arachidonic acid is applied to the right ear of each mouse of each group in the amount of 4 mg/ear. Vehicle is applied to the left ear of each mouse of each group at a volume of 20 »l/ear. After an additional hour, the mice are sacrificed and a 4mm plug is taken from each ear and weighed. The difference between the right and left ear plugs was determined for each animal. The antiinflammatory activity of the test compound is expressed as the mean percent change in the ear plug weight of the treated animals relative to the mean percent change in weights of control animals' ear. (Standard: Indomethacin -90% at 1 mg/ear). Young, J.M. et al., Invest. Dermatol., 80, (1983), pp. 48-52.

[3] = test system: phenyl-para-quinone induced writhing; assay: Phenyl-para-benzoquinone writhing assay (analgesia); assay type: in vivo; settings: Mus musculus, mice; for ED50: sc, subcutaneous dose at which 50% of the phenyl-para-quinone induced writhing is inhibited, read-out: ED₅₀
Text: The compounds of the present invention are also useful as analgesic agents due to this ability to alleviate pain in mammals. […] Exptl. Biol. Med., 95, 729 (1957)].
The analgesic activity of some of the compounds expressed as either the subcutaneous dose at which 50% of the phenyl-para-quinone induced writhing is inhibited in the animals, i.e., the ED₅₀ value, or as the % decrease in writhing at a given dose is presented in Table 2.

[4] = test system: naja naja (snake venom) phospholipase A₂(PLA₂)-induced paw edema; assay: Phospholipase A2-Induced Paw Edema (PIPE); assay type: in vivo, male Wistar rats; settings: for ED₅₀: standards of the PIPE assay, PLA2-induced rat paw edema; for PIPE 0.1 M: 0.1 M test compound injected with PLA2 (3 units/paw) in the subplantar region of the rat left hindpaw, paw displacement at two hours
Protocol: Phospholipase A₂-Induced Paw Edema (PIPE)
The ability of compounds to reverse naja naja (snake venom) phospholipase A₂(PLA₂)-induced paw edema in male Wistar rats (100-125 gm) was measured. PLA₂ (3 units/100 »l dH₂O/paw) alone or with 0.1 M of the test compound was injected in the sulplantar region of the rat left hindpaw. Immediatly following injection and at two hours post administration, the paw was immersed in a mercury bath, and paw displacement was measured on a recorder via a transducer. The value was then converted to […]. (Standards: Quinacrine ED₅₀ = 0.1 M; Hydrocortisone ED₅₀= 0.46 M). Giessler, A.J. et al., "Agents and Action", Vol. 10, "Trends in Inflammation Research" (1981), p. 195.

| Compound | AAEE % Change @ 1 mg/ear [2] [%] | PIPE 0.1 M [4] | TPAEE 10 »g/ear [1] | other results |
| --- | --- | --- | --- | --- |
| COc1ccc2c(c1)c(CC(=O)O)c(C)n2C(=O)c1ccc(Cl)cc1 [Indomethacin, reference compound] | -90 | – | – | TPAEE percent change in ear plug weight ([1]; standard, at 1 mg/ear): -86% |
| CCC(=O)O[C@](Cc1ccccc1)(c1ccccc1)[C@H](C)CN(C)C [Propoxyphene, reference compound] | – | – | – | ED50 [3]: 3.9 mg/kg |
| CCN(O)C(=O)C(C)c1ccc2c(c1)C(=O)c1ccccc1CO2 (centres unmarked) [2-(6,11-Dihydro-11-oxodibenz[b,e,]oxepin-2-yl]-N-ethyl-N-hydroxypropanamide] | – | – | – | ED50 [3]: 3.6 mg/kg |
| O=C1c2ccccc2COc2ccc(CCC(=O)N(O)C3CCCCC3)cc21 [3-(6,11-Dihydro-11-oxodibenz[b,e]oxepin-2-yl)-N-cyclohexyl-N-hydroxypropanamide] | – | – | – | inhibition at 20 mg/kg [3]: 76% |
| C[C@]12CCC(=O)C=C1CC[C@@H]1[C@@H]2[C@@H](O)C[C@@]2(C)[C@H]1CC[C@]2(O)C(=O)CO [Hydrocortisone, reference compound] | – | – | – | ED₅₀ [4]: 0.46 M |
| CN(O)C(=O)CCc1ccc2c(c1)C(=O)c1ccccc1CO2 [3-(6,11-Dihydro-11-oxodibenz[b,e]oxepin-2-yl)-N-hydroxy-N-methylpropanamide] | -63 | -46 | -71 | – |
| CN(O)CCc1ccc2c(c1)C(=O)c1ccccc1CO2 [2-(6,11-Dihydro-11-oxodibenz[b,e]oxepin-2-yl)-N-hydroxy-N-methyl-ethylamine] | -46 | -70 | -50 | – |
| O=C1c2ccccc2COc2ccc(CC(=O)N(O)C3CCCCC3)cc21 [N-Cyclohexyl-2-(6,11-dihydro-11-oxodibenz[b,e]oxepin-2-yl)-N-hydroxyacetamide] | -29 | -85 | -52 | inhibition at 20 mg/kg [3]: 68% |
| CCN(CC)CCCC(C)Nc1c2ccc(Cl)cc2nc2ccc(OC)cc12 (centres unmarked) [Quinacrine, reference compound] | – | – | – | ED₅₀ [4]: 0.1 M |
